Source: patent US9532993B2, “Aprepitant L-proline solvates—compositions and cocrystals” (priority 2011, dated 2017)

Columns and labels:
[1] = for weight loss during the initial desorption cycle: initial desorption scan 50-0.5% RH; for solid form of the product obtained after the GVS analysis (XRPD): XRPD after completion of the GVS isotherm
Method: Gravimetric Vapour Isotherm (GVS) Analysis: Sorption isotherms were obtained using a Hiden Isochema moisture sorption analyser (model IGAsorp), controlled by IGAsorp Systems Software V6.50.48. The sample was maintained at a constant temperature (25° C.) by the instrument controls. The humidity was controlled by mixing streams of dry and wet nitrogen, with a total flow of 250 ml·min^−1. The instrument was verified for relative humidity content by measuring three calibrated Rotronic salt solutions (10-50-80%). The weight change of the sample was monitored as a function of humidity by a microbalance (accuracy +/−0.005 mg). A defined amount of sample was placed in a tared mesh stainless steel basket under ambient conditions. The sample was loaded at 40% RH and 25° C. (typical room conditions). The sample was initially held at 50% RH for ˜80 minutes before the initial desorption cycle was commenced. A moisture sorption isotherm was acquired as outlined in Table 1 (2 scans giving 1 complete cycle). The standard isotherm was collected at a constant temperature (25° C.) and at 10% RH intervals over a 0.5-90% range (80 minutes for each humidity level). Data analysis was undertaken in Microsoft Excel.
The sample was recovered after completion of the isotherm and re-analysed by XRPD.

[2] = Class IV indicates low solubility and low permeability API; cited from earlier work
[3] = marketed nanoparticulate formulation; cited from earlier work
[4] = cited from earlier work

| SMILES | weight loss during the initial desorption cycle ([1]; GVS, 25° C.) [%] | hygroscopicity of the obtained product ([1]; GVS, 25° C., product obtained after initial desorption) | water adsorbed by the obtained product at high relative humidity ([1]; GVS, 25° C., product obtained after initial desorption (converted to H2O cocrystal), high relative humidity) [%] | solid form of the product obtained after the GVS analysis (XRPD) [1] | BCS class [2] | mean absolute bioavailability [3] | solubility in acetonitrile ([4]; acetonitrile) | solubility in ethanol ([4]; ethanol) | solubility in isopropyl acetate ([4]; isopropyl acetate) | solubility in water ([4]; water) | weight loss over the total desorption-adsorption-desorption cycles ([1]; GVS, 25° C., 0.5-90% RH) [%] |
| --- | --- | --- | --- | --- | --- | --- | --- | --- | --- | --- | --- |
| CCO.C[C@@H](O[C@H]1OCCN(Cc2n[nH]c(=O)[nH]2)[C@H]1c1ccc(F)cc1)c1cc(C(F)(F)F)cc(C(F)(F)F)c1.O=C(O)[C@@H]1CCCN1 | 4.3 | not hygroscopic | 0.5 | entirely the 1:1:1 aprepitant L-proline H2O cocrystal | – | – | – | – | – | – | – |
| C[C@@H](O[C@H]1OCCN(Cc2nc(=O)[nH][nH]2)[C@H]1c1ccc(F)cc1)c1cc(C(F)(F)F)cc(C(F)(F)F)c1 [Aprepitant] | – | – | – | – | Class IV | 60-65% | slightly soluble | sparingly soluble | sparingly soluble | practically insoluble | – |
| CCCO.C[C@@H](O[C@H]1OCCN(Cc2n[nH]c(=O)[nH]2)[C@H]1c1ccc(F)cc1)c1cc(C(F)(F)F)cc(C(F)(F)F)c1.O=C(O)[C@@H]1CCCN1 | 4.4 | – | – | entirely the 1:1:1 aprepitant L-proline H2O cocrystal | – | – | – | – | – | – | 6.3 |
